The numbers were not newly measured in patent US20090220618A1, “PHARMACEUTICAL FORMULATIONS COMPRISING POLYANIONIC MATERIALS AND SOURCE OF HYDROGEN PEROXIDE” (priority 2008, published 2009), which cites them from elsewhere.

For orientation: pKa means the pH at which an ionisable group is half protonated.

The conditions of series [1]: at 25° C.
Series [2] has as its system sensitive tissues of the eye.

Regarding `O=S(=O)(O)CCCCNC(CO)(CO)CO` [TABS, N-tris(hydroxymethyl)methyl-4-aminobutanesulfonic acid], the pKa in series [1] is given as 8.9.

On to `CC(C)(CO)NCC(O)CS(=O)(=O)O` (stereo not drawn) [AMP SO], for which, in series [1], the pKa was 9.0. For `O=S(=O)(O)CC(O)CN(CCO)CCO` (stereo not drawn) [DIPSO], the pKa in series [1] is reported as 7.52. Consider benzalkonium chloride [BAK], for which, in series [2], the concentration causing apoptosis was 0.01%, the “concentration causing growth arrest” value was 0.00001% and the concentrations causing necrosis is 0.05-0.1%.
